From ChEMBL document CHEMBL1132875, “Bicyclic pyridones as potent, efficacious and orally bioavailable thrombin inhibitors” (Bioorg Med Chem Lett, 2000) come the findings set out here.

pKi: −log10 of the molar value.

Data set [1] addresses Serine protease 1 (Homo sapiens, UniProt P07477). Put plainly: The compound was tested for its ability to inhibit trypsin.
Data set [2] deals with Prothrombin (Homo sapiens, UniProt P00734). Description: The compound was tested for its ability to inhibit thrombin.
Data set [3] can be described thus: The compound was tested in vitro for its anticoagulant potency (2x APTT) of human plasma. In kind it is functional.
Data set [4] concerns Rattus norvegicus. Put plainly: Final plasma concentration when 3 ug/kg/min compound administered intravenously in rat. In kind it is ADME, organism-based. To be noted: in vivo, iv, 0.003 mg/kg.
The test system of data set [5] is Rattus norvegicus. Description: Compound was tested in vivo for its antithrombotic efficacy in six rats upon intravenous administration of 3 ug/kg/min dose and activity expressed as number of occlusions. It is filed as functional.
Data set [6] is described as follows: Oral absorption kinetics (AUC) was determined after administration of compound orally at 1 mg/kg in dogs. To be noted: dog, in vivo. In kind it is ADME, organism-based, Canis lupus familiaris. On the set-up: dose 1 mg/kg, route oral.
Data set [7] in a line: Maximum time taken for oral absorption was determined after oral administration at 1 mg/kg in dogs. It is filed as ADME, organism-based, Canis lupus familiaris. On the set-up: dose 1 mg/kg, route oral. Particulars: dog, in vivo.
A short description of data set [8]: (§1) Half life was determined after oral administration at 1 mg/kg in dogs. In kind it is ADME, organism-based, Canis lupus familiaris. On the set-up: dose 1 mg/kg, route oral. To be noted: dog, in vivo.
The nature of data set [9]: Cmax in dog plasma after 1mg/kg oral dose. It is filed as ADME, organism-based, Canis lupus familiaris. More on the design: dose 1 mg/kg, route oral.
In data set [10] the test system is Rattus norvegicus. Description: Compound was tested in vivo for its antithrombotic efficacy in six rats upon intravenous administration of 10 ug/kg/min dose and activity expressed as number of occlusions.
For data set [11], the system named is Rattus norvegicus. Description: Final plasma concentration when 10 ug/kg/min compound administered intravenously in rat. In kind it is ADME, organism-based. To be noted: in vivo, iv, 0.01 mg/kg.
Data set [12] relates to Canis familiaris. The data set is described as §1. In kind it is ADME, organism-based, Canis lupus familiaris. On the set-up: dose 1 mg/kg, route oral. To be noted: dog, in vivo.
In data set [13] the test system is Rattus norvegicus. Description: Compound was tested in vivo for its antithrombotic efficacy in six rats upon intravenous administration of 10 ug/kg/min dose and activity expressed as number of occlusions. It is filed as functional.

Sequence of Serine protease 1 (P07477 whole entry): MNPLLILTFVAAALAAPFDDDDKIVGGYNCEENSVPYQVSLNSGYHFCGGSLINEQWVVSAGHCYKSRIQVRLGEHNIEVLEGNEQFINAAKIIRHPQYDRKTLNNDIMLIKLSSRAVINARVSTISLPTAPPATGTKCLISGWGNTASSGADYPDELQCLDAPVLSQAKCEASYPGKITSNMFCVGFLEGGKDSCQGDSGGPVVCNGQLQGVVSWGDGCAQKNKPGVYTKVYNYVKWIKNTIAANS

A word on the pKi: it is −log10 of the Ki, conventionally taken in molar units. A low value points to a high Ki. For the molecule `CC[C@@H]1Cc2cc(C)n(CC(=O)NCc3ccc(N)nc3C)c(=O)c2NC1=O`, the pKi in data set [1] was 5.38; in data set [2], 8.80. Further, the “Concentration doubling APTT” value in [3] was determined as 310 nM.
In the case of `CCC[C@H]1Cc2cc(C)n(CC(=O)NCc3ccc(N)nc3C)c(=O)c2NC1=O`, the pKi in data set [1] was 4.66; in data set [2], 7.44.
Molecule `Cc1nc(N)ccc1CNC(=O)Cn1c(C)cc2c(c1=O)NC(=O)[C@H](Cc1ccccc1)C2` had a pKi in data set [1] of 4.90. The “Concentration doubling APTT” value in data set [3] was determined as 200 nM.
`CCC[C@@H]1Cc2cc(C)n(CC(=O)NCc3ccc(N)nc3C)c(=O)c2NC1=O`: the pKi in data set [1] was 6.29; in data set [2], 9.48. The “Concentration doubling APTT” value in data set [3] is on record as 180 nM.
Regarding `Cc1nc(N)ccc1CNC(=O)Cn1c(C)cc2c(c1=O)NC(=O)[C@H](CC1CC1)C2`, the figures for the negative logarithm of the Ki (pKi) in data set [1] and in [2] were 6.11 and 9.68, respectively. In [4], this molecule yielded a concentration of 185 nM. The molecule also had an Activity in data set [5] of 1. In addition, the “Concentration doubling APTT” value in [3] is 150 nM.
The AUC is the area under the concentration-time curve, a measure of exposure. A high value points to more exposure. One may read the Tmax as the time from dosing to the highest level. Usually half-life stands for how long it takes for the measured level to halve. Higher therefore signals slow decline. What is called Cmax is the maximum level reached in the sampled fluid or tissue. For `Cc1nc(N)ccc1CNC(=O)Cn1c(C)cc2c(c1=O)NC(=O)[C@](C)(CC(C)C)C2`, the pKi in data set [1] is 6.07. For the same molecule, the AUC in data set [6] turned out to be 2.97 µM·h. Also, in [3], the “Concentration doubling APTT” value is 160 nM. For the same molecule, the Tmax in data set [7] is 0.5 h. The molecule further displayed a half-life in data set [8] of 1.5 h. Moreover, the Cmax in data set [9] was found to be 1370 nM.
As for `Cc1nc(N)ccc1CNC(=O)Cn1c(C)cc2c(c1=O)NC(=O)[C@H](CC(C)C)C2`, the pKi in [1] was 6.24; in data set [2] it was 9.40. This molecule came in with an AUC in data set [6] of 0.75 µM·h. Also, the Activity in [10] is given as 0. Further, the “Concentration doubling APTT” value in data set [3] was 220 nM. In data set [11], this molecule displayed a concentration of 255 nM. Besides, the Tmax in [7] is 1.17 h. The molecule further yielded a half-life in [8] of 2.35 h. For the same molecule, the concentration in data set [9] peaked (Cmax) at 180 nM.
On to `Cc1nc(N)ccc1CNC(=O)Cn1c(C)cc2c(c1=O)NC(=O)C(CC(C)C)(CC(C)C)C2`, for which the “Concentration doubling APTT” value in [3] is listed as 390 nM.
The molecule `Cc1nc(N)ccc1CNC(=O)Cn1c(C)cc2c(c1=O)NC(=O)CC2` gave a pKi in data set [1] of 4.00.
`Cc1nc(N)ccc1CNC(=O)Cn1c(C)ccc(NS(=O)(=O)Cc2ccccc2)c1=O` [L-374087]: in data set [6], the exposure (AUC) amounted to 4.42 µM·h. For the same molecule, in data set [12], the T1/2 came to 2.57 h.
As for `Cc1nc(N)ccc1CNC(=O)Cn1c(C)cc2c(c1=O)NC(=O)[C@H](CC1CCC1)C2`, in data set [1], the pKi was 6.38. In [13], this molecule returned an Activity of 0. Further, the “Concentration doubling APTT” value in data set [3] is recorded as 190 nM. For the same molecule, in [11], the concentration was determined as 596 nM.
